{"source": "paper PMC7915765", "about": "“Biochemical Characterization, Specificity and Inhibition Studies of HTLV-1, HTLV-2, and HTLV-3 Proteases” (Life, 2021)", "key": {"HTLV-3 PR": {"target": "HTLV-3 PR (Human T-cell leukemia virus 3, UniProt Q4U0X6)", "sequence (Q4U0X6 431-553)": "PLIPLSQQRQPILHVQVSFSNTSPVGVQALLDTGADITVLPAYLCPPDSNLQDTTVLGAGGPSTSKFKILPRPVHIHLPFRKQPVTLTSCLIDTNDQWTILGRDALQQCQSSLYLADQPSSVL", "assay": "Protease activity assay with oligopeptide substrates (RP-HPLC), HTLV-3 PR", "format": "biochemical, human T-cell leukemia virus type 3", "design": "made in house; host or cells: E. coli BL21(DE3), pET11a", "conditions": "pH 5.6, 37 °C", "source_text": "(§1) The oligopeptides representing the naturally occurring matrix/capsid (MA/CA), capsid/nucleocapsid (CA/NC), trans-frame protein/protease (TF1/PR), and PR/p1 cleavage sites of HTLV-1, -2, and -3 PRs were used as substrates. The oligopeptide substrates representing the natural sequences of HTLV PRs were ordered from BioBasic, while the oligopeptide substrates representing naturally occurring cleavage sites of various viruses, or the wild-type, the shortened, and the P4, P3, P2, P1, or P1′ variants of HTLV-1 MA/CA cleavage site (KTKVL*VVQPK) were in-house stocks. All peptides were dissolved in distilled water.\n(§2) For kinetic measurements, we applied 10 µL 2× incubation buffer (0.5 M K3PO4, 4 M NaCl, 10 v/v% glycerol, 10 mM DTT, pH 5.6), 5 µL of HTLV-1, HTLV-2, or HTLV-3 PR (final concentration of the active enzyme was in 0.1–34.4 nM), and 0.5–5 µL oligopeptide substrate representing HTLV PR natural cleavage sites (0.05–1.10 mM final concentration). The final volume of the reaction mixture was set to 20 µL with distilled water if it was necessary. The reactions were initiated by the addition of the enzyme, were incubated at 37 °C for 0.5–4 h, and stopped by the addition of 180 µL 1 v/v% TFA. For substrates representing natural cleavage sites of retroviruses other than HTLV-1, -2, and -3 PRs (HIV-1, equine infectious anemia virus (EIAV), Rous sarcoma virus (RSV), mouse mammary tumor virus (MMTV), Mason-Pfizer monkey virus (MPMV), and murine leukemia virus (MuLV) and BLV) in a longer incubation time (24 h) was also applied. The cleavage products were separated by using a Nova-Pack C18 RP-HPLC column (3.9 mm × 150 mm, Waters Associates Inc, Milford, MA, USA) on HPLC (Merck-Hitachi LaChrom). Water-acetonitrile gradient (0–100%) was used for separation in the presence of 0.05% TFA at 2 mL/min flow rate. The kinetic parameters were determined by fitting the data—obtained at less than 20% substrate hydrolysis—to the Michaelis–Menten equation. The Gaussian equation was used to determine pH optimum and exponential growth equation for determination of optimal NaCl concentration, while linear regression was applied to plot the dependence of enzyme activity on temperature. Prism8 software (GraphPad Software Inc., San Diego, CA, USA) was used for evaluation. The kcat/KM catalytic constants were calculated based on the active enzyme concentration, which was determined by active site titration using the method described previously."}, "HTLV-1 PR": {"test_system": "HTLV-1 PR", "conditions": "cited from earlier work", "source_text": "Table 2 Catalytic efficiencies of HTLV PRs on different substrates representing natural cleavage site sequences. Cleavage sites are labelled by asterisks within the sequences. Abbreviations: MA (matrix), CA (capsid), NC (nucleocapsid), and TF1 (trans-frame 1). | column: kcat/KM [mM^−1 s^−1] / HTLV-1 PR || Table 3 Catalytic efficiencies of HTLV PRs on different substrates representing natural cleavage site sequences of viruses other than HTLV. Cleavage sites are labelled by an asterisk within the sequences. Abbreviations: MA (matrix), CA (capsid), NC (nucleocapsid), TF (transframe), RT (reverse-transcriptase), and IN (integrase). | column: Substrate; kcat/KM (mM^−1 s^−1) / HTLV-1 PR ^1"}, "HTLV-2 PR": {"target": "HTLV-2 PR (Human T-cell leukemia virus 2, UniProt P03363)", "sequence (P03363 447-571)": "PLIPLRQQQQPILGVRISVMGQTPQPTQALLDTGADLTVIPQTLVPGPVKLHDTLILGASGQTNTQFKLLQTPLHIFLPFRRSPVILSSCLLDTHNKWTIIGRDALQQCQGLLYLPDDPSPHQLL", "assay": "Protease activity assay with oligopeptide substrates (RP-HPLC), HTLV-2 PR", "format": "biochemical, human T-cell leukemia virus type 2", "design": "made in house; host or cells: E. coli BL21(DE3)", "conditions": "pH 5.6, 37 °C", "source_text": "as §1, §2"}, "HIV-1 PR": {"test_system": "HIV-1 PR", "conditions": "cleavage sites of viruses other than HTLV, retrieved from the literature, ref [28]; cited from earlier work", "source_text": "Table 3 Catalytic efficiencies of HTLV PRs on different substrates representing natural cleavage site sequences of viruses other than HTLV. Cleavage sites are labelled by an asterisk within the sequences. Abbreviations: MA (matrix), CA (capsid), NC (nucleocapsid), TF (transframe), RT (reverse-transcriptase), and IN (integrase). | column: kcat/KM (mM^−1 s^−1) / HIV-1 PR ^1"}, "[1]": {"conditions": "cleavage sites of viruses other than HTLV, longer incubation time (24 h) also applied"}, "[2]": {"conditions": "cleavage sites of viruses other than HTLV, retrieved from the literature, ref [28]"}, "[3]": {"conditions": "natural HTLV cleavage sites, substrate 0.05–1.10 mM, 2× buffer 0.5 M K3PO4, 4 M NaCl, 10 v/v% glycerol, 10 mM DTT, 0.5–4 h"}, "[4]": {"conditions": "natural HTLV-1 cleavage site substrates, previously reported values, ref [34]"}}, "note": "Read-outs that look alike come from different tables or passages of the source.", "data": [{"substance": "AKLVL*AQLSK [EIAV PR/RT, oligopeptide substrate AKLVL*AQLSK]", "values": [{"measurement": "kcat/KM", "setting": "HTLV-3 PR; [1]", "result": "not cleaved"}, {"measurement": "kcat/KM", "setting": "HTLV-1 PR; [2]", "result": "not cleaved"}, {"measurement": "kcat/KM", "setting": "HTLV-2 PR; [1]", "result": "not cleaved"}, {"measurement": "kcat/KM", "setting": "HIV-1 PR", "result": 13400, "unit": "M⁻¹ s⁻¹"}]}, {"substance": "APQVL*PVMHP [HTLV-1 MA/CA, oligopeptide substrate APQVL*PVMHP]", "values": [{"measurement": "kcat/KM", "setting": "HTLV-3 PR; [3]", "result": "32500 ± 6700", "unit": "M⁻¹ s⁻¹"}, {"measurement": "kcat/KM", "setting": "HTLV-1 PR; [4]", "result": "85.2 ± 26.1 ^1 mM^−1 s^−1"}, {"measurement": "kcat/KM", "setting": "HTLV-2 PR; [3]", "result": "5500 ± 1000", "unit": "M⁻¹ s⁻¹"}]}, {"substance": "CTLNF*PISP [HIV-1 PR/RT, oligopeptide substrate CTLNF*PISP]", "values": [{"measurement": "kcat/KM", "setting": "HTLV-3 PR; [1]", "result": "not cleaved"}, {"measurement": "kcat/KM", "setting": "HTLV-1 PR; [2]", "result": "not cleaved"}, {"measurement": "kcat/KM", "setting": "HTLV-2 PR; [1]", "result": "not cleaved"}, {"measurement": "kcat/KM", "setting": "HIV-1 PR", "result": 24100, "unit": "M⁻¹ s⁻¹"}]}, {"substance": "DELIL*PVKRK [MMTV P3/P8, oligopeptide substrate DELIL*PVKRK]", "values": [{"measurement": "kcat/KM", "setting": "HTLV-3 PR; [1]", "result": "not cleaved"}, {"measurement": "kcat/KM", "setting": "HTLV-1 PR; [2]", "result": 2.6, "unit": "mM⁻¹ s⁻¹"}, {"measurement": "kcat/KM", "setting": "HTLV-2 PR; [1]", "result": "not cleaved"}, {"measurement": "kcat/KM", "setting": "HIV-1 PR", "result": 1500, "unit": "M⁻¹ s⁻¹"}]}, {"substance": "DPASIL*PVIP [HTLV-1 TF1/PR, oligopeptide substrate DPASIL*PVIP]", "values": [{"measurement": "kcat/KM", "setting": "HTLV-3 PR; [3]", "result": "1200 ± 400", "unit": "M⁻¹ s⁻¹"}, {"measurement": "kcat/KM", "setting": "HTLV-1 PR; [4]", "result": "3.8 ± 0.6 ^1 mM^−1 s^−1"}, {"measurement": "kcat/KM", "setting": "HTLV-2 PR; [3]", "result": "400 ± 100", "unit": "M⁻¹ s⁻¹"}]}, {"substance": "DSKAF*LADTW [MMTV PP21/P3, oligopeptide substrate DSKAF*LADTW]", "values": [{"measurement": "kcat/KM", "setting": "HTLV-3 PR; [1]", "result": "not cleaved"}, {"measurement": "kcat/KM", "setting": "HTLV-1 PR; [2]", "result": "not cleaved"}, {"measurement": "kcat/KM", "setting": "HTLV-2 PR; [1]", "result": "not cleaved"}, {"measurement": "kcat/KM", "setting": "HIV-1 PR", "result": 7500, "unit": "M⁻¹ s⁻¹"}]}, {"substance": "ERQAN*FLGKI [HIV-1 NC/P1, oligopeptide substrate ERQAN*FLGKI]", "values": [{"measurement": "kcat/KM", "setting": "HTLV-3 PR; [1]", "result": "not cleaved"}, {"measurement": "kcat/KM", "setting": "HTLV-1 PR; [2]", "result": "not cleaved"}, {"measurement": "kcat/KM", "setting": "HTLV-2 PR; [1]", "result": "not cleaved"}, {"measurement": "kcat/KM", "setting": "HIV-1 PR", "result": 1000, "unit": "M⁻¹ s⁻¹"}]}, {"substance": "IAAAM*SSAIQ [RSV CA/P3, oligopeptide substrate IAAAM*SSAIQ]", "values": [{"measurement": "kcat/KM", "setting": "HTLV-3 PR; [1]", "result": "not cleaved"}, {"measurement": "kcat/KM", "setting": "HTLV-1 PR; [2]", "result": "not cleaved"}, {"measurement": "kcat/KM", "setting": "HTLV-2 PR; [1]", "result": "not cleaved"}, {"measurement": "kcat/KM", "setting": "HIV-1 PR", "result": "not cleaved"}]}, {"substance": "IQPLIM*AVVNR [RSV P3/NC, oligopeptide substrate IQPLIM*AVVNR]", "values": [{"measurement": "kcat/KM", "setting": "HTLV-3 PR; [1]", "result": "not cleaved"}, {"measurement": "kcat/KM", "setting": "HTLV-1 PR; [2]", "result": ">100", "unit": "mM⁻¹ s⁻¹"}, {"measurement": "kcat/KM", "setting": "HTLV-2 PR; [1]", "result": "not cleaved"}, {"measurement": "kcat/KM", "setting": "HIV-1 PR", "result": 318000, "unit": "M⁻¹ s⁻¹"}]}, {"substance": "KARVL*AEAMS [HIV-1 CA/P2, oligopeptide substrate KARVL*AEAMS]", "values": [{"measurement": "kcat/KM", "setting": "HTLV-3 PR; [1]", "result": "not cleaved"}, {"measurement": "kcat/KM", "setting": "HTLV-1 PR; [2]", "result": "not cleaved"}, {"measurement": "kcat/KM", "setting": "HTLV-2 PR; [1]", "result": "not cleaved"}, {"measurement": "kcat/KM", "setting": "HIV-1 PR", "result": 90000, "unit": "M⁻¹ s⁻¹"}]}, {"substance": "KEEIM*LAYQG [EIAV RT/RH, oligopeptide substrate KEEIM*LAYQG]", "values": [{"measurement": "kcat/KM", "setting": "HTLV-3 PR; [1]", "result": "not cleaved"}, {"measurement": "kcat/KM", "setting": "HTLV-1 PR; [2]", "result": "<0.01", "unit": "mM⁻¹ s⁻¹"}, {"measurement": "kcat/KM", "setting": "HTLV-2 PR; [1]", "result": "not cleaved"}, {"measurement": "kcat/KM", "setting": "HIV-1 PR", "result": 18300, "unit": "M⁻¹ s⁻¹"}]}, {"substance": "KGPPVIL*PIQAP [HTLV-1 PR/P1, oligopeptide substrate KGPPVIL*PIQAP]", "values": [{"measurement": "kcat/KM", "setting": "HTLV-3 PR; [3]", "result": "238400 ± 60100", "unit": "M⁻¹ s⁻¹"}, {"measurement": "kcat/KM", "setting": "HTLV-1 PR; [4]", "result": "288.3 ± 73.6 ^1 mM^−1 s^−1"}, {"measurement": "kcat/KM", "setting": "HTLV-2 PR; [3]", "result": "20600 ± 2800", "unit": "M⁻¹ s⁻¹"}]}, {"substance": "KQPAIL*VHTPG [BLV CA/NC, oligopeptide substrate KQPAIL*VHTPG]", "values": [{"measurement": "kcat/KM", "setting": "HTLV-3 PR; [1]", "result": "not cleaved"}, {"measurement": "kcat/KM", "setting": "HTLV-1 PR; [2]", "result": "not cleaved"}, {"measurement": "kcat/KM", "setting": "HTLV-2 PR; [1]", "result": "not cleaved"}, {"measurement": "kcat/KM", "setting": "HIV-1 PR", "result": "not cleaved"}]}, {"substance": "KTKVL*VVQPK [HTLV-1 CA/NC, oligopeptide substrate KTKVL*VVQPK]", "values": [{"measurement": "kcat/KM", "setting": "HTLV-3 PR; [3]", "result": "30100 ± 15400", "unit": "M⁻¹ s⁻¹"}, {"measurement": "kcat/KM", "setting": "HTLV-1 PR; [4]", "result": "150.6 ± 15.1 ^1 mM^−1 s^−1"}, {"measurement": "kcat/KM", "setting": "HTLV-2 PR; [3]", "result": "67200 ± 33400", "unit": "M⁻¹ s⁻¹"}]}, {"substance": "LTFTF*PVVFMRR [MMTV N/CA, oligopeptide substrate LTFTF*PVVFMRR]", "values": [{"measurement": "kcat/KM", "setting": "HTLV-3 PR; [1]", "result": "not cleaved"}, {"measurement": "kcat/KM", "setting": "HTLV-1 PR; [2]", "result": 0.01, "unit": "mM⁻¹ s⁻¹"}, {"measurement": "kcat/KM", "setting": "HTLV-2 PR; [1]", "result": "not cleaved"}, {"measurement": "kcat/KM", "setting": "HIV-1 PR", "result": 900, "unit": "M⁻¹ s⁻¹"}]}]}
